Values quoted from earlier work in patent US20020072062A1, “Chloramphenicol biosynthetic pathway and gene cluster” (Diversa Corporation, priority 1999, published 2002).
Like-named read-outs stand apart in the source and are kept apart here.

Key:
[1] = tested on: Cm-sensitive Micrococcus luteus; conditions: against Cm-sensitive Micrococcus luteus; metabolite of Cm from S. lividans M252 pJV4 transformants
[2] = tested on: Streptomyces venezuelae ISP5230

Question: For `O=C(NC(COP(=O)(O)O)C(O)c1ccc([N+](=O)[O-])cc1)C(Cl)Cl` (stereo not drawn) [3′-O-phospho-Cm], which inhibitory activity [1] is on record?
Answer: The inhibitory activity was “negligible inhibitory activity”.

Question: With `Nc1ccc(S(N)(=O)=O)cc1` [sulfanilamide] as the compound, how does the sulfanilamide resistance ([2]; before replacement of chromosomal pabAB) read?
Answer: The sulfanilamide resistance was 25 micrograms mL-1.

Question: And the sulfanilamide resistance ([2]; chromosomal pabAB replaced with copy disrupted by apramycin resistance gene)?
Answer: Its sulfanilamide resistance is 5 micrograms mL-1.
